Source: patent publication US12344599B2, “Prodigiosin analogs and methods of use” (Institute For Cancer Research, priority 2016, dated 2025)
pIC50: −log10 of the molar value.

How the values were obtained:
CAL-27 = test: CellTiterGlo cell viability assay, CAL-27; assay type: cell-based; details: Homo sapiens; CAL-27, head & neck squamous cell carcinoma, p53 H193L, 72 hours
Method: (§1) • 1) Cell lines: HT29, SW480, DLD-1, HCT116, and p53-null HCT116 cells, H1975, MDA-MD-231, U251, FaDu, CAL-27, PANC-1, Aspc-1, and MRC5 were obtained from the ATCC and cultured as recommended. Cells were regularly authenticated by bioluminescence, growth, and morphologic observation. The cells were routinely examined for Mycoplasma and all cell lines underwent STR authentication. • 2) Western blotting: After treatment, protein lysates were collected for Western blot analysis. 15 μg of protein was used for SDS-PAGE. After primary and secondary antibody incubations, the signal was detected by chemiluminescent detection kit, imaged by Syngene (Imgen Technologies). […] The cell viability was assessed by CellTiterGlo bioluminescent cell proliferation assay (Promega), following the manufacturer's protocol. Bioluminescence imaging was measured using the IVIS imager. Percentage of cell viability (mean±SEM) at each dose was calculated against the respective DMSO control. The IC50 values were determined from the sigmoidal dose-response curves using GraphPad Prims4. • 4) Caspase activity assay: Cells were seeded in 96-well plate (1×10^4 cells/well). […] The caspase 3/7 activity was assessed by Caspase-Glo® 3/7 Assay kit (Promega), following the manufacturer's protocol. Bioluminescence imaging was measured using the IVIS imager. […]

FaDu = test: CellTiterGlo cell viability assay, FaDu; assay type: cell-based; details: Homo sapiens, head & neck squamous cell carcinoma, p53 R248L, 72 hours
Method: as §1

[1] = system: SW480, DLD1 and p53-null cell line HCT116; test: CellTiter-Glo luminescent cell viability assay (Example 1); assay type: cell-based, human
Method: SW480, DLD-1, DLD1-p73KD, HCT116, and p53-null HCT116, MRC5 and Wi38 cells were seeded at 5,000 cells per well on 96-well plates. […] Then, cells were mixed with an equal volume of CellTiter-Glo® reagents (Promega), following the manufacturer's protocol, and bioluminescence imaging was measured using the IVIS imager.

HCT116 p53−/− = test: CellTiterGlo cell viability assay, HCT116 p53−/−; assay type: cell-based; details: Homo sapiens, HCT-116, colorectal cancer, p53 null, 72 hours
Method: as §1

caspase 3/7 = test: Caspase-Glo 3/7 caspase activity assay; assay type: cell-based, human; details: mutant p53 and p53-null cancer cells, 24 hours
Method: as §1

HT29 = test: CellTiterGlo cell viability assay, HT29; assay type: cell-based; details: Homo sapiens, HT-29; HT29, colorectal cancer, p53 R273H, 72 hours
Method: as §1

ASPC-1 = test: CellTiterGlo cell viability assay, ASPC-1; assay type: cell-based; details: Homo sapiens, ASPC1; ASPC-1, pancreatic cancer, p53 frameshift, 72 hours
Method: as §1

SW480 = test: CellTiterGlo cell viability assay, SW480; assay type: cell-based; details: Homo sapiens; SW480, colorectal cancer, p53 R273, P309S, 72 hours
Method: as §1

HT29 cells = test: Flow cytometry sub-G1 (PI staining) analysis; assay type: cell-based, human; details: for sub-G1 populations: HT29, co-treatment with PG3-Oc and TRAIL; for sub-G1 population: 1 μM PG3-Oc for 48 hours
Method: • 1) Cell lines: HT29, SW480, DLD-1, HCT116, and p53-null HCT116 cells, H1975, MDA-MD-231, U251, FaDu, CAL-27, PANC-1, Aspc-1, and MRC5 were obtained from the ATCC and cultured as recommended. Cells were regularly authenticated by bioluminescence, growth, and morphologic observation. The cells were routinely examined for Mycoplasma and all cell lines underwent STR authentication. • 2) Western blotting: After treatment, protein lysates were collected for Western blot analysis. 15 μg of protein was used for SDS-PAGE. After primary and secondary antibody incubations, the signal was detected by chemiluminescent detection kit, imaged by Syngene (Imgen Technologies). Antibodies for Puma, FLIPL/S and p53 (Santa Cruz Biotechnology), cleaved caspase 8, caspase 9, caspase 3, cleavage PARP, eIF2α, p-eIF2α(Ser51), CHOP, ATF4, DR5, FOXO3a, p-FOXO3a(Ser253), NF-κB p65, p-NF-κB p65(Ser536), c-Jun, p-c-Jun(Ser63), JNK, p-JNK(Thr183/Tyr185) (Cell Signaling Technology), Noxa, p21 (Calbiochem), p73 (Bethyl laboratories Inc), Ran (BD Biosciences), […] (Sigma). • 3) Cell viability assay: Cells were seeded in 96-well plate (6×10^3 cells/well). Cells were treated with different concentrations of compounds or dimethyl sulfoxide (DMSO) control for 72 hours. The cell viability was assessed by CellTiterGlo bioluminescent cell proliferation assay (Promega), following the manufacturer's protocol. Bioluminescence imaging was measured using the IVIS imager. Percentage of cell viability (mean±SEM) at each dose was calculated against the respective DMSO control. The IC50 values were determined from the sigmoidal dose-response curves using GraphPad Prims4. • 4) Caspase activity assay: Cells were seeded in 96-well plate (1×10^4 cells/well). Cells were treated with different concentrations of compounds or DMSO control for 24 hours. The caspase 3/7 activity was assessed by Caspase-Glo® 3/7 Assay kit (Promega), following the manufacturer's protocol. Bioluminescence imaging was measured using the IVIS imager. Caspase activity was normalized to cell numbers and compared to those of DMSO treatment as control in each cell line. Data is reported as mean RLU+SEM (n=3). • 5) Colony formation assays: Five hundred cells were seeded per well on 6-well plates and treated with different concentrations of compounds for 24 hours, then, cells were cultured with drug-free complete medium for 2 weeks with fresh medium changed every 7 days. Cells were fixed with 10% formalin and stained with 0.05% crystal violet at the end of 2 weeks period of cell culture. • 6) Flow cytometry assay: • a) Cell Cycle Analysis: Propidium iodide (PI) staining and flow cytometry were used to determine the degree of cellular apoptosis. Cells were seeded at 3×10^5 cells/well in six-well plates. Cells were treated with PG3-Oc for 48 hours. Cells were harvested, fixed by 70% ethanol, and stained by propidium iodide, then flow cytometry was performed as previously described (Smithen et al., Org. Biomol. Chem., 2013, 11, 62-68). The percentage of hypodiploid cells (sub-G1) was used to quantify dead cells in apoptosis assays. • b) Early apoptosis detection: Cells were seeded at 3×10^5 cells/well in six-well plates. Cells were treated with PG3-Oc for 48 hours. […]

`CCCCCCCCOC(=O)CCc1c(C)[nH]c(/C=C2\N=C(c3ccc[nH]3)C=C2OC)c1C` [PG3-Oc, Octyl (Z)-3-(5-((4′-methoxy-1H,5′H-[2,2′-bipyrrol]-5′-ylidene)methyl)-2,4-dimethyl-1H-pyrrol-3-yl)propanoate] was tested, and the pIC50 (CAL-27) was 7.47, the pIC50 (FaDu) was 7.18 and the “induction of cell death” value ([1]; SW480, DLD1, p53-null HCT116) was “potently induced cell death”. For the same compound, the IC50 values ([1]; SW480, DLD1, p53-null HCT116, 72 hours) was “within nanomolar range”, the pIC50 (HCT116 p53−/−) was 7.39 and the “increase in caspase 3/7 activity as compared to untreated cells” value (caspase 3/7) was 2 fold. For the same compound, the pIC50 (HT29) was 7.18, the pIC50 (ASPC-1) was 7.41 and the pIC50 (SW480) was 7.02. The sub-G1 populations (HT29 cells; siRNA knockdown of DR5) was 29.5%, the sub-G1 populations (HT29 cells; without DR5 knockdown) was 72.9% and the sub-G1 population (HT29 cells; HT29, knockdown of PUMA by siRNA) was 11.1%. The sub-G1 population (HT29 cells; HT29, siControl) was 25.8%.
